Reference: patent publication US20250268857A1 (priority 2020, published 2025)
Where “and” joins values, the source holds several entries; their conditions need not be identical. Equal entries are not always repeated. Where two headings read alike, the source gives them in different places.

Assays:
[1] = test system: feline caliciviruses; assay type: cell-based, feline calicivirus
[2] = test system: avian influenza virus (A/whistling swan/Shimane/499/83 (H5N3)); assay type: cell-based; conditions: reacted 10 minutes at room temperature (20° C.), sterile distilled water control 7.75
[3] = test system: feline coronavirus (Feline Enteric Coronavirus, WSU 79-1683); test: Coronavirus inactivation test (titration on Felis catus whole fetus cells); assay type: cell-based; conditions: 7500 ppm aqueous solution of zinc gluconate; in 30 minutes
Method: First, 0.9 ml of 7500 ppm of aqueous solution of zinc gluconate (phosphate buffered saline (PBS) was used for comparison) used as a sample solution and 0.1 ml of feline coronavirus solution (Feline Enteric Coronavirus, WSU 79-1683, 1.3× 10^5 EID50/0.1 ml) were mixed in a vortex mixer and reacted at room temperature (20° C.) for 30 minutes. The mixture solution of the sample and the virus was diluted to 100 times with a 5-times diluted Soybean-Casein Digest Broth with Lecithin & Polysorbate 80 (SCDLP) to stop the reaction and obtain a sample for measuring virus infection values.
Felis catus whole fetus cells used for testing were pre-seeded in 96-well plates and cultured in a CO2 incubator for 4 days. After this, the culture supernatant was removed and replaced with Dulbecco's Modified Eagle's medium containing 1% fetal bovine serum (available from Nissui Pharmaceutical Co., Ltd.).
The wells from which the culture medium had been removed were inoculated with 25 μl of the above sample for measuring virus infection values or with a 10-fold dilution of this in PBS, and the virus was allowed to infect the cells at 37° C. for 1 hour. […] After incubation, the cytopathic effect caused by virus growth was observed under a microscope, and the virus infection titer was calculated by the Reed and Muench method.

[4] = test system: human influenza viruses and avian influenza viruses with different anti-HN types (H1N1, H1N1 subtype, and H7N7); assay type: cell-based, influenza virus; conditions: zinc gluconate concentration of 7,500 ppm
[5] = test system: influenza A virus (Kumamoto/Y5/67 (H2/N2)); set-up: species or system guinea pigs; conditions: guinea pig, in vivo
[6] = assay type: physicochemical; conditions: samples with 2,000 to 30,000 ppm zinc gluconate
Source text: Zinc oxide nanoparticles having a diameter of 50 to 70 nm were dispersed and stirred into an aqueous solution at room temperature while the solution temperature was prevented from exceeding room temperature. The aqueous solution contained 50% of organic acid (gluconic acid in the embodiment) that partially lactonizes when dissolved in water.

zinc gluconate
reduction in infectivity titer [1]: 94% | Virus Infectivity Titer ([2]; zinc gluconate 2,000 ppm): 6.25 log EID50/0.1 ml | Virus Infectivity Titer ([2]; zinc gluconate 3,750 ppm): 4.5 log EID50/0.1 ml | Virus Infectivity Titer ([2]; zinc gluconate 5,000 ppm): 3.5 log EID50/0.1 ml | Virus Infectivity Titer ([2]; zinc gluconate 7,500 ppm): 2.25 log EID50/0.1 ml | Virus Infectivity Titer ([2]; zinc gluconate 10,000 ppm): 2.5 log EID50/0.1 ml | Virus Infectivity Titer ([2]; zinc gluconate 30,000 ppm): 5.75 log EID50/0.1 ml | titer reduced to (fraction) [3]: 1/100 | reduction in infectivity titer [4]: same reduction in infectivity titer | Infection rate [5]: 4/10 and 1/10 and 3/10 | pH [6]: 3.6
